Like-named read-outs stand apart in the source and are kept apart here.
Tests used:
[1] = tested on: HCV genotype 1a (H77 strain) replicon in HUH-7 cells; assay: HCV replicon luciferase reporter assay, genotype 1a; type: cell-based; conditions: Hepatitis C virus, Huh-7, 72 h, 3 days incubation
Procedure, shortened: (§1)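 Replicon inhibition for both genotypes was measured as Renilla luciferase signal (EnduRen, 7.5 μM final, 2 h) after 3-day, 37° C exposure of replicon-bearing HUH-7 cells in 4% FCS DMEM, 0.5% DMSO. The 1b construct carries S1179I; the 1a H77 construct carries P1496L and S2204I. Twenty-point, 3-fold dilutions were fitted four-parametrically for EC50, and CC50 was taken from multiplexed Cell Titer-Blue.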

[2] = tested on: HCV genotype 1b (Con1) replicon in HUH-7 cells; assay: HCV replicon luciferase reporter assay, genotype 1b; type: cell-based; conditions: Hepatitis C virus, Huh-7, 72 h, 3 days incubation
Procedure, shortened: as §1

[3] = HCV genotype 1a replicon luciferase assay, range class, read-out: LE_1a (EC50, range)
[4] = HCV genotype 1b replicon luciferase assay, range class, read-out: LE_1b (EC50, range)
[5] = HCV genotype 1a replicon luciferase, read-out: LE_1a (EC50, range)
[6] = HCV genotype 1b replicon luciferase, read-out: LE_1b (EC50, range)

| Compound | EC50 [1, 3] | EC50 [2, 4] | EC50 [1, 5] | EC50 [2, 6] | further results |
| --- | --- | --- | --- | --- | --- |
| CC(C)n1nc(O[C@@H]2C[C@H]3C(=O)N[C@]4(C(=O)NS(=O)(=O)C5CC5)C[C@H]4/C=C\CC[C@@H](C)C[C@@H](C)[C@H](NC(=O)OC(C)(C)C(C)(F)F)C(=O)N3C2)c2ccccc2c1=O [Compound 1018, 3,3-difluoro-2-methylbutan-2-yl((2R,6S,7R,9R,13aS,14aR,16aS,Z)-14a-((cyclopropylsulfonyl)carbamoyl)-2-((3-isopropyl-4-oxo-3,4-dihydrophthalazin-1-yl)oxy)-7,9-dimethyl-5,16-dioxo-1,2,3,5,6,7,8,9,10,11,13a,14,14a,15,16,16a-hexadecahydrocyclopropa[e]pyrrolo[1,2-a][1,4]diazacyclopentadecin-6-yl)carbamate] | 4.82 to 103 nM | 4.82 to 103 nM |  |  |  |
| COc1ccc2c(O[C@@H]3C[C@H]4C(=O)N[C@]5(C(=O)NS(=O)(=O)C6(C)CC6)C[C@H]5/C=C\CC[C@H](C)C[C@@H](C)[C@H](NC(=O)OCC5(C)CC5)C(=O)N4C3)nc(-c3ccc(F)cc3)cc2c1 [Compound 3084, (1-methylcyclopropyl)methyl ((2R,6S,7R,9S,13aS,14aR,16aS,Z)-2-((3-(4-fluorophenyl)-6-methoxyisoquinolin-1-yl)oxy)-7,9-dimethyl-14a-(((1-methylcyclopropyl)sulfonyl)carbamoyl)-5,16-dioxo-1,2,3,5,6,7,8,9,10,11,13a,14,14a,15,16,16a-hexadecahydrocyclopropa[e]pyrrolo[1,2-a][1,4]diazacyclopentadecin-6-yl)carbamate] | 4.82 to 103 nM | < 5.46 nM |  |  |  |
| C[C@@H]1CC/C=C\[C@@H]2C[C@@]2(C(=O)NS(=O)(=O)C2(CF)CC2)NC(=O)[C@@H]2C[C@@H](Oc3ncc(N4CCOCC4)c4ccccc34)CN2C(=O)[C@@H](NC(=O)OC(C)(C)C(F)(F)F)[C@H](C)C1 [Compound 5449, 1,1,1-trifluoro-2-methylpropan-2-yl((2R,6S,7R,9R,13aS,14aR,16aS,Z)-14a-(((1-(fluoromethyl)cyclopropyl)sulfonyl)carbamoyl)-7,9-dimethyl-2-((4-morpholinoisoquinolin-1-yl)oxy)-5,16-dioxo-1,2,3,5,6,7,8,9,10,11,13a,14,14a,15,16,16a-hexadecahydrocyclopropa[e]pyrrolo[1,2-a][1,4]diazacyclopentadecin-6-yl)carbamate] |  |  | 1.01 to 5 nM | 0.51 to 1 nM |  |
| COc1ccc2c(O[C@@H]3C[C@H]4C(=O)N[C@]5(C(=O)NS(=O)(=O)C6(CF)CC6)C[C@H]5/C=C\CC[C@@H](C)C[C@@H](C)[C@H](NC(=O)OC(C)(C)C)C(=O)N4C3)nc(OC)nc2c1 [Compound 3015, tert-butyl ((2R,6S,7R,9R,13aS,14aR,16aS,Z)-2-((2,7-dimethoxyquinazolin-4-yl)oxy)-14a-(((1-(fluoromethyl)cyclopropyl)sulfonyl)carbamoyl)-7,9-dimethyl-5,16-dioxo-1,2,3,5,6,7,8,9,10,11,13a,14,14a,15,16,16a-hexadecahydrocyclopropa[e]pyrrolo[1,2-a][1,4]diazacyclopentadecin-6-yl)carbamate] | < 5.46 nM | < 5.46 nM |  |  |  |
| COc1cc(O[C@@H]2C[C@H]3C(=O)N[C@]4(C(=O)NS(=O)(=O)C5(C)CC5)C[C@H]4/C=C\CC[C@@H](C)C[C@@H](C)[C@H](NC(=O)OC(C)(C)C(F)(F)F)C(=O)N3C2)c2cc(F)c(OC)cc2n1 [Compound 1203] |  |  |  |  | EC50 ([1]; GETYPE1A, HCV genotype 1a replicon luciferase, read-out: LE_1a (EC50, range)): 1.01 to 5 nM; EC50 ([2]; GETYPE1B, HCV genotype 1b replicon luciferase, read-out: LE_1b (EC50, range)): 0.1 to 0.5 nM |
| CC[C@@H]1C[C@H](C)CC/C=C\[C@@H]2C[C@@]2(C(=O)NS(=O)(=O)C2CC2)NC(=O)[C@@H]2C[C@@H](Oc3ncc(OC)c4ccc(F)cc34)CN2C(=O)[C@H]1NC(=O)OC(C)(C)C(F)(F)F [Compound 4002, 1,1,1-trifluoro-2-methylpropan-2-yl (2R,6S,7R,9R,13aS,14aR,16aS,Z)-14a-(cyclopropylsulfonylcarbamoyl)-7-ethyl-2-(7-fluoro-4-methoxyisoquinolin-1-yloxy)-9-methyl-5,16-dioxo-1,2,3,5,6,7,8,9,10,11,13a,14,14a,15,16,16a-hexadecahydrocyclopropa[e]pyrrolo[1,2-a][1,4]diazacyclopentadecin-6-ylcarbamate] |  |  | < 5.46 nM | < 5.46 nM |  |
| COc1ccc2c(O[C@@H]3C[C@H]4C(=O)N[C@]5(C(=O)NS(=O)(=O)C6CC6)C[C@H]5/C=C\CC[C@H](C)C[C@@H](C)[C@H](NC(=O)OC(C)(C)C(F)(F)F)C(=O)N4C3)nc(-c3ccc(F)cc3)cc2c1 [Compound 3043, 1,1,1-trifluoro-2-methylpropan-2-yl((2R,6S,7R,9S,13aS,14aR,16aS,Z)-14a-((cyclopropylsulfonyl)carbamoyl)-2-((3-(4-fluorophenyl)-6-methoxyisoquinolin-1-yl)oxy)-7,9-dimethyl-5,16-dioxo-1,2,3,5,6,7,8,9,10,11,13a,14,14a,15,16,16a-hexadecahydrocyclopropa[e]pyrrolo[1,2-a][1,4]diazacyclopentadecin-6-yl)carbamate] | < 5.46 nM | < 5.46 nM |  |  |  |
| [2H]C([2H])([2H])C(OC(=O)N[C@@H]1C(=O)N2C[C@H](Oc3nccc4cc(OC(C)C)ccc34)C[C@H]2C(=O)N[C@]2(C(=O)NS(=O)(=O)C3(C)CC3)C[C@H]2/C=C\CC[C@H](C)C[C@H]1C)(C([2H])([2H])[2H])C([2H])([2H])[2H] [Compound 5166, 1,1,1,3,3,3-hexadeutero-2-(trideuteromethyl)propan-2-yl((2R,6S,7R,9S,13aS,14aR,16aS,Z)-2-((6-isopropoxyisoquinolin-1-yl)oxy)-7,9-dimethyl-14a-(((1-methylcyclopropyl)sulfonyl)carbamoyl)-5,16-dioxo-1,2,3,5,6,7,8,9,10,11,13a,14,14a,15,16,16a-hexadecahydrocyclopropa[e]pyrrolo[1,2-a][1,4]diazacyclopentadecin-6-yl)carbamate] |  |  | 4.82 to 103 nM | 4.82 to 103 nM |  |
| COc1ccc2c(O[C@@H]3C[C@H]4C(=O)N[C@]5(C(=O)NS(=O)(=O)C6CC6)C[C@H]5/C=C\CC[C@H](C)C[C@@H](C)[C@H](NC(=O)OC(C)(C)C(C)(F)F)C(=O)N4C3)nc(-c3ccc(OC(C)C)cn3)cc2c1 [Compound 5474, 3,3-difluoro-2-methylbutan-2-yl((2R,6S,7R,9S,13aS,14aR,16aS,Z)-14a-((cyclopropylsulfonyl)carbamoyl)-2-((3-(5-isopropoxypyridin-2-yl)-6-methoxyisoquinolin-1-yl)oxy)-7,9-dimethyl-5,16-dioxo-1,2,3,5,6,7,8,9,10,11,13a,14,14a,15,16,16a-hexadecahydrocyclopropa[e]pyrrolo[1,2-a][1,4]diazacyclopentadecin-6-yl)carbamate] |  |  | 1.01 to 5 nM | 1.01 to 5 nM |  |
| COc1ccc2nc(C)c(O[C@@H]3C[C@H]4C(=O)N[C@]5(C(=O)NS(=O)(=O)C6(C)CC6)C[C@H]5/C=C\CC[C@@H](C)C[C@@H](C)[C@H](NC(=O)OC(C)(C)C)C(=O)N4C3)nc2c1 [Compound 4109, tert-butyl (2R,6S,7R,9R,13aS,14aR,16aS,Z)-2-(7-methoxy-3-methylquinoxalin-2-yloxy)-7,9-dimethyl-14a-(1-methylcyclopropylsulfonylcarbamoyl)-5,16-dioxo-1,2,3,5,6,7,8,9,10,11,13a,14,14a,15,16,16a-hexadecahydrocyclopropa[e]pyrrolo[1,2-a][1,4]diazacyclopentadecin-6-ylcarbamate] |  |  | < 5.46 nM | < 5.46 nM |  |
| [2H]C([2H])([2H])C(OC(=O)N[C@@H]1C(=O)N2C[C@H](Oc3ncc(OC)c4ccccc34)C[C@H]2C(=O)N[C@]2(C(=O)NS(=O)(=O)C3(C)CC3)C[C@H]2/C=C\CC[C@@H](C)C[C@H]1CC)(C([2H])([2H])[2H])C(F)(F)F [Compound 5431] |  |  | 1.01 to 5 nM | 1.01 to 5 nM |  |
| CC(C)n1nc(O[C@@H]2C[C@H]3C(=O)N[C@]4(C(=O)NS(=O)(=O)C5(C)CC5)C[C@H]4/C=C\CC[C@H](C)C[C@@H](C)[C@H](NC(=O)OC(C)(C)C(F)(F)F)C(=O)N3C2)c2ccccc2c1=O [Compound 1011, 1,1,1-trifluoro-2-methylpropan-2-yl((2R,6S,7R,9S,13aS,14aR,16aS,Z)-2-((3-isopropyl-4-oxo-3,4-dihydrophthalazin-1-yl)oxy)-7,9-dimethyl-14a-(((1-methylcyclopropyl)sulfonyl)carbamoyl)-5,16-dioxo-1,2,3,5,6,7,8,9,10,11,13a,14,14a,15,16,16a-hexadecahydrocyclopropa[e]pyrrolo[1,2-a][1,4]diazacyclopentadecin-6-yl)carbamate] | > 87.4 nM | > 87.4 nM |  |  | EC50 ([1]; HCV genotype 1a replicon luciferase assay, read-out: LE_1a (EC50)): ≥ 1000 nM; EC50 ([2]; HCV genotype 1b replicon luciferase assay, read-out: LE_1b (EC50)): 362 nM |
| CC[C@@H]1C[C@H](C)CC/C=C\[C@@H]2C[C@@]2(C(=O)NS(=O)(=O)C2(C)CC2)NC(=O)[C@@H]2C[C@@H](Oc3ncc(N4CCOCC4)c4ccccc34)CN2C(=O)[C@H]1NC(=O)OC(C)(C)C(F)(F)F [Compound 5419, 1,1,1-trifluoro-2-methylpropan-2-yl((2R,6S,7R,9R,13aS,14aR,16aS,Z)-7-ethyl-9-methyl-14a-(((1-methylcyclopropyl)sulfonyl)carbamoyl)-2-((4-morpholinoisoquinolin-1-yl)oxy)-5,16-dioxo-1,2,3,5,6,7,8,9,10,11,13a,14,14a,15,16,16a-hexadecahydrocyclopropa[e]pyrrolo[1,2-a][1,4]diazacyclopentadecin-6-yl)carbamate] |  |  | 1.01 to 5 nM | 0.51 to 1 nM |  |
